Source: ChEMBL document CHEMBL3808322, “Structure-based discovery of novel 4,5,6-trisubstituted pyrimidines as potent covalent Bruton's tyrosine kinase inhibitors” (Bioorg Med Chem Lett, 2016)

biological target: T1, Tyrosine-protein kinase BTK (Homo sapiens, UniProt Q06187); experiment: Inhibition of BTK (unknown origin) assessed as reduction in phosphorylation of coumarin and fluorescein-labeled FRET peptide substrate incubated for 1 hr by Z-Lyte assay
T1 sequence (Q06187 whole entry): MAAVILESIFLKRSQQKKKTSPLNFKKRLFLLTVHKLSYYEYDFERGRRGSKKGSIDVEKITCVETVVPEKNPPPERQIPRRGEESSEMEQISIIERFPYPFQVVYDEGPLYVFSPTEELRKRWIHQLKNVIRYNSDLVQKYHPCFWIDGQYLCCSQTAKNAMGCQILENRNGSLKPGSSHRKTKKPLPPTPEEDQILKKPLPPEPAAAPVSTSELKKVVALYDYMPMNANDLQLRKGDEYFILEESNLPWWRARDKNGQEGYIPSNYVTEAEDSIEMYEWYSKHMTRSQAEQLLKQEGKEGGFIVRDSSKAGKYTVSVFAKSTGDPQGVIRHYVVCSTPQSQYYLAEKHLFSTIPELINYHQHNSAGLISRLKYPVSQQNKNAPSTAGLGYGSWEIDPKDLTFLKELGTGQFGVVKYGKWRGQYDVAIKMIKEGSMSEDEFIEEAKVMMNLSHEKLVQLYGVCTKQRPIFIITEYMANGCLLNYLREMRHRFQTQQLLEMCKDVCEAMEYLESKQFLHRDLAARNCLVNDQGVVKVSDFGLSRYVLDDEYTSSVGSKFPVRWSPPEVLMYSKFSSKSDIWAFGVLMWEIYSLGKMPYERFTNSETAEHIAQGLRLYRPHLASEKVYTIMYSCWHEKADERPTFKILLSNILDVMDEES

| SMILES | IC50 [nM] |
| --- | --- |
| C=CC(=O)N1CCN(c2ncnc(N)c2C(=O)c2ccc(Oc3ccccc3)cc2)CC1 | 880 |
| C=CC(=O)N1CCC(Nc2ncnc(N)c2C(=O)c2ccc(Oc3ccccc3)cc2)CC1 | 1070 |
| C=CC(=O)N1CCN(c2ncnc(N)c2C(=O)c2ccc(OCC)cc2)CC1 | 1320 |
| C=CC(=O)N1CCC[C@@H](Nc2ncnc(N)c2C(=O)c2ccc(OCC)cc2)C1 | 1800 |
| C=CC(=O)N1CCC[C@@H](Nc2ncnc(N)c2C(=O)c2ccc(Oc3ccccc3)cc2)C1 | 70 |

biological target: T1, Tyrosine-protein kinase BTK; experiment: Inhibition of BTK (unknown origin)

| SMILES | IC50 [nM] |
| --- | --- |
| C=CC(=O)N1CCC[C@@H](n2c(=O)n(-c3ccc(Oc4ccccc4)cc3)c3c(N)ncnc32)C1 | 23.9 |
| C=CC(=O)Nc1cccc(Oc2nc(Nc3ccc(N4CCN(C)CC4)cc3)nc3ccsc23)c1 [OLMUTINIB] | 1 |
